Experiment [1] deals with Mycosphaerella graminicola; Anamorph: Septoria tritici. In words: Leaf Blotch of Wheat (SEPTTR) disease control. The settings on record: for pest or weed control at 100 ppm / pest or weed control at 121.5 g/ha: Zymoseptoria tritici; for pest or weed control at 121.5 g/ha: rate 121.5 g/H. The experiment is classed as in vivo. The procedure:
(§1) Technical grades of materials were dissolved in acetone, which were then mixed with nine volumes of water containing 110 ppm Triton X-100. The fungicide solutions were applied onto wheat seedlings using an automated booth sprayer to run-off. All sprayed plants were allowed to air dry prior to further handling. All fungicides were evaluated using the aforementioned method for their activity vs. all target diseases. Wheat leaf blotch and brown rust activity were also evaluated using track spray applications, in which case the fungicides were formulated as EC formulations, containing 0.1% Trycol 5941 in the spray solutions. Wheat plants (variety Yuma) were grown from seed in a greenhouse in 50% mineral soil/50% soil-less Metro mix until the first leaf was fully emerged, with 7-10 seedlings per pot. These plants were inoculated with an aqueous spore suspension of Septoria tritici either prior to or after fungicide treatments. After inoculation the plants were kept in 100% relative humidity (one day in a dark dew chamber followed by two to three days in a lighted dew chamber at 20° C.) to permit spores to germinate and infect the leaf. The plants were then transferred to a greenhouse set at 20° C. for disease to develop. When disease symptoms were fully expressed on the 1st leaves of untreated plants, infection levels were assessed on a scale of 0 to 100 percent disease severity. Percent disease control was calculated using the ratio of disease severity on treated plants relative to untreated plants.

Experiment [2] concerns Puccinia triticina; Synonym: Puccinia recondite f. Sp. Tritici. In words: Wheat Brown Rust (PUCCRT) disease control. It counts as in vivo. The settings on record: for pest or weed control at 100 ppm / pest or weed control at 121.5 g/ha: Puccinia triticina, topical; for pest or weed control at 121.5 g/ha: rate 121.5 g/H. As for the experimental part: as §1, with “plants. Wheat plants (variety Yuma) were grown from seed in a greenhouse in 50% mineral soil/50% soil-less Metro mix until the first leaf was fully emerged, with 7-10 seedlings per pot. These plants were inoculated with an aqueous spore suspension of Puccinia triticina either prior to or after fungicide treatments. After inoculation the plants were kept in a dark dew room at 22° C. with 100% relative humidity overnight to permit spores to germinate and infect the leaf. The plants were then transferred to a greenhouse set at 24° C. for disease to develop. Fungicide formulation, application and disease assessment followed the procedures as described in the Example A.” for “plants.”

The mark [3] stands for this setting: 24 h, 1 Day Protectant, rate 100 ppm, read-out: SEPTTR 1 DP disease control.
Where [4] appears, read: 72 h, 3 Day Curative, rate 100 ppm, read-out: SEPTTR 3 DC disease control.
Where [5] appears, read: 24 h, 1 Day Protectant, rate 100 ppm, read-out: PUCCRT 1 DP disease control.
The mark [6] stands for this setting: 72 h, 3 Day Curative, rate 100 ppm, read-out: PUCCRT 3 DC disease control.
[7] abbreviates: 24 h, 1 Day Protectant, read-out: SEPTTR 1 DP disease control.
Where [8] appears, read: 72 h, 3 Day Curative, read-out: SEPTTR 3 DC disease control.
[9] abbreviates: 24 h, 1 Day Protectant, read-out: PUCCRT 1 DP disease control.
Where [10] appears, read: 72 h, 3 Day Curative, read-out: PUCCRT 3 DC disease control.

Where two headings read alike, the source gives them in different places.

Regarding `COc1ccnc(C(=O)N[C@H]2CCC[C@H](CCOc3ccccc3)[C@@H](Oc3ccccc3)[C@H](C)OC2=O)c1O` [Compound F44], the pest or weed control at 100 ppm in experiment [1] (setting [3]), in experiment [1] (setting [4]), in experiment [2] (setting [5]) and in experiment [2] (setting [6]) was 80 to 100% in each case.

Take `COCC[C@H]1CCC[C@H](NC(=O)c2nccc(OC)c2O)C(=O)O[C@@H](C)[C@@H]1Oc1ccccc1` [Compound F45]: the pest or weed control at 100 ppm in experiment [1] (setting [3]), in experiment [1] (setting [4]), in experiment [2] (setting [5]) and in experiment [2] (setting [6]) was 80 to 100% each time.

As for `COc1ccnc(C(=O)N[C@H]2CCC[C@H](CCSC)[C@@H](OCC(C)C)[C@H](C)OC2=O)c1O` [Compound F46], the pest or weed control at 100 ppm in experiment [1] (setting [3]) was in the range of 0 to 80%; in experiment [1] (setting [4]) it was 80 to 100%; in experiment [2] (setting [5]), 80 to 100%; in experiment [2] (setting [6]), 80 to 100%.

`COCC[C@H]1CCC[C@H](NC(=O)c2nccc(OC)c2O)C(=O)O[C@@H](C)[C@@H]1OCC(C)C` [Compound F47]: the pest or weed control at 100 ppm in experiment [1] (setting [3]), in experiment [1] (setting [4]), in experiment [2] (setting [5]) and in experiment [2] (setting [6]) was 80 to 100% each time.

For `CC[C@H]1CCC[C@H](NC(=O)c2nccc(OC)c2O)C(=O)O[C@@H](C)[C@@H]1OCC(C)C` [Compound F48], the pest or weed control at 100 ppm in experiment [1] (setting [3]), in experiment [1] (setting [4]), in experiment [2] (setting [5]) and in experiment [2] (setting [6]) was 80 to 100% throughout.

Regarding `COc1ccnc(C(=O)N[C@H]2CCC[C@H](CCBr)[C@@H](Oc3ccccc3)[C@H](C)OC2=O)c1O` [Compound F50], the pest or weed control at 100 ppm in experiment [1] (setting [3]), in experiment [1] (setting [4]), in experiment [2] (setting [5]) and in experiment [2] (setting [6]) was 80 to 100% throughout.

As to `CC[C@H]1CCC[C@H](NC(=O)c2nccc(OC)c2O)C(=O)O[C@@H](C)[C@@H]1Oc1ccccc1` [Compound F51], the pest or weed control at 100 ppm in experiment [1] (setting [3]) lay within 80 to 100%; in experiment [1] (setting [4]), 0 to 80%; in experiment [2] (setting [5]), 80 to 100%; in experiment [2] (setting [6]), 0 to 80%.

Consider `COc1ccnc(C(=O)N[C@H]2CCC[C@H](CC(F)F)[C@@H](Oc3ccccc3)[C@H](C)OC2=O)c1O` [Compound F53], for which the pest or weed control at 100 ppm was in the range of 80 to 100% in experiment [1] (setting [3]), 0 to 80% in experiment [1] (setting [4]), 80 to 100% in experiment [2] (setting [5]) and 80 to 100% in experiment [2] (setting [6]).

`COc1ccnc(C(=O)N[C@H]2CCC[C@H](CCOCC3CC3)[C@@H](OCC3CC3)[C@H](C)OC2=O)c1O` [Compound F54]: the pest or weed control at 100 ppm in experiment [1] (setting [3]) is 0 to 80%; in experiment [1] (setting [4]) it was 80 to 100%; in experiment [2] (setting [5]), 80 to 100%; in experiment [2] (setting [6]), 80 to 100%.

Take `COc1ccnc(C(=O)N[C@H]2CCC[C@H](Cc3ccc(C)cc3)[C@@H](OCCCC(F)(F)F)[C@H](C)OC2=O)c1O` [Compound F55]: the “SEPTTR 1 DP disease control” value in experiment [1] (1 Day Protectant, rate 100 ppm) is on record as “A (80-100)”. In addition, in experiment [1] (3 Day Curative, rate 100 ppm), the “SEPTTR 3 DC disease control” value is given as “B (More than 0-Less than 80)”. Besides, the “PUCCRT 1 DP disease control” value in experiment [2] (1 Day Protectant, rate 100 ppm) is “A (80-100)”.

As for `COc1ccnc(C(=O)N[C@H]2CCC[C@H](Cc3ccc(F)cc3F)[C@@H](OCCCc3ccccc3)[C@H](C)OC2=O)c1O` [Compound F56], the pest or weed control at 100 ppm lay within 80 to 100% in experiment [1] (setting [3]), 0 to 80% in experiment [1] (setting [4]), 80 to 100% in experiment [2] (setting [5]) and 0 to 80% in experiment [2] (setting [6]).

Take `COc1ccnc(C(=O)N[C@H]2CCC[C@H](CCOc3ccccc3)[C@@H](OCC3CC3)[C@H](C)OC2=O)c1O` [Compound F57]: the pest or weed control at 100 ppm in experiment [1] (setting [3]) lay in the range of 80 to 100%; in experiment [1] (setting [4]), 0 to 80%; in experiment [2] (setting [5]), 80 to 100%; in experiment [2] (setting [6]), 80 to 100%.

Turning to `C=C[C@H]1CCC[C@H](NC(=O)c2nccc(OC)c2O)C(=O)O[C@@H](C)[C@@H]1Oc1ccccc1` [Compound F61], the pest or weed control at 100 ppm in experiment [1] (setting [3]) is 80 to 100%; in experiment [2] (setting [5]) it was 80 to 100%; in experiment [2] (setting [6]), 0 to 80%.

Regarding `COc1ccnc(C(=O)N[C@H]2CCC[C@H](CCC(C)C)[C@@H](Oc3ccccc3)[C@H](C)OC2=O)c1OC(C)=O` [Compound F62], the pest or weed control at 100 ppm in experiment [1] (setting [3]), in experiment [1] (setting [4]), in experiment [2] (setting [5]) and in experiment [2] (setting [6]) was 80 to 100% throughout. The pest or weed control at 121.5 g/ha is 80 to 100% in experiment [1] (setting [7]), 80 to 100% in experiment [1] (setting [8]), 80 to 100% in experiment [2] (setting [9]) and 0 to 80% in experiment [2] (setting [10]).

In the case of `COc1ccnc(C(=O)N[C@H]2CCC[C@H](CCC(C)C)[C@@H](OCCCC(F)(F)F)[C@H](C)OC2=O)c1OC(C)=O` [Compound F65], the pest or weed control at 100 ppm in experiment [1] (setting [3]), in experiment [1] (setting [4]), in experiment [2] (setting [5]) and in experiment [2] (setting [6]) was 80 to 100% each time. In addition, the pest or weed control at 121.5 g/ha lay within 80 to 100% in experiment [1] (setting [7]), 80 to 100% in experiment [1] (setting [8]), 80 to 100% in experiment [2] (setting [9]) and 0 to 80% in experiment [2] (setting [10]).

Consider `COc1ccnc(C(=O)N[C@H]2CCC[C@H](CCC(C)C)[C@@H](OC)[C@H](C)OC2=O)c1OC(C)=O` [Compound F66], for which the pest or weed control at 100 ppm in experiment [1] (setting [3]), in experiment [1] (setting [4]), in experiment [2] (setting [5]) and in experiment [2] (setting [6]) was 80 to 100% throughout. Also, the pest or weed control at 121.5 g/ha in experiment [1] (setting [7]) was 80 to 100%; in experiment [1] (setting [8]), 0 to 80%; in experiment [2] (setting [9]), 0 to 80%; in experiment [2] (setting [10]) it was 0 to 80%.

On to `COc1ccnc(C(=O)N[C@H]2CCC[C@H](Cc3ccc(F)cc3)[C@@H](Oc3ccccc3)[C@H](C)OC2=O)c1OC(C)=O` [Compound F68], for which the pest or weed control at 100 ppm in experiment [1] (setting [3]), in experiment [1] (setting [4]), in experiment [2] (setting [5]) and in experiment [2] (setting [6]) was 80 to 100% in each case. In addition, the pest or weed control at 121.5 g/ha in experiment [1] (setting [7]) lay within 80 to 100%; in experiment [1] (setting [8]), 80 to 100%; in experiment [2] (setting [9]), 80 to 100%; in experiment [2] (setting [10]) it was 0 to 80%.

As to `COc1ccnc(C(=O)N[C@H]2CCC[C@H](Cc3ccc(F)cc3)[C@@H](OCC(F)F)[C@H](C)OC2=O)c1OC(C)=O` [Compound F69], the pest or weed control at 100 ppm in experiment [1] (setting [3]), in experiment [1] (setting [4]), in experiment [2] (setting [5]) and in experiment [2] (setting [6]) was 80 to 100% each time. The pest or weed control at 121.5 g/ha in experiment [1] (setting [7]), in experiment [1] (setting [8]), in experiment [2] (setting [9]) and in experiment [2] (setting [10]) was 80 to 100% throughout.

In the case of `COc1ccnc(C(=O)N[C@H]2CCC[C@H](CC3CCCC3)[C@@H](Oc3ccccc3)[C@H](C)OC2=O)c1OC(C)=O` [Compound F71], the pest or weed control at 100 ppm in experiment [1] (setting [3]), in experiment [1] (setting [4]), in experiment [2] (setting [5]) and in experiment [2] (setting [6]) was 80 to 100% throughout. Besides, the pest or weed control at 121.5 g/ha fell in the range of 80 to 100% in experiment [1] (setting [7]), 80 to 100% in experiment [1] (setting [8]), 80 to 100% in experiment [2] (setting [9]) and 0 to 80% in experiment [2] (setting [10]).

The values are drawn from patent publication US9265253B2, “Use of macrocyclic picolinamides as fungicides” (DOW AGROSCIENCES LLC, priority 2013, dated 2016).
